The target in one data set is T1, Caspase-6 (Homo sapiens, UniProt P55212).
T1 sequence (P55212 24-179 limits assumed): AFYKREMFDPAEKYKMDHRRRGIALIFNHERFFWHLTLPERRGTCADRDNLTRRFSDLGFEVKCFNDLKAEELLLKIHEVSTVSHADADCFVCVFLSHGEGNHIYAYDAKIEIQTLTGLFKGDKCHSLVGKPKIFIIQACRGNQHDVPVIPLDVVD
T1 sequence (P55212 194-293 limits assumed): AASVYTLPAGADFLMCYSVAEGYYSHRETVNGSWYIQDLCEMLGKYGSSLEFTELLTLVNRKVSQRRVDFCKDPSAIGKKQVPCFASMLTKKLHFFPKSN
Nature of the data set: Enzymatic caspase activity assay, (Ac-VEID)2-Rh110 substrate. The conditions noted are these: 15 minute enzyme/inhibitor preincubation and 40 minute enzyme reaction.

In another data set the target is T2, Caspase-3 (Homo sapiens, UniProt P42574).
T2 construct: made in house; host or cells: E. coli
T2 sequence (P42574 29-175 limits assumed): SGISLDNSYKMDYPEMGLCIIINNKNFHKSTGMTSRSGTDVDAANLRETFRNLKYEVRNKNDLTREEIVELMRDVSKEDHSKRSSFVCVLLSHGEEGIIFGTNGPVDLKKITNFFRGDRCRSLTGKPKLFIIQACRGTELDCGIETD
T2 sequence (P42574 176-277 limits assumed): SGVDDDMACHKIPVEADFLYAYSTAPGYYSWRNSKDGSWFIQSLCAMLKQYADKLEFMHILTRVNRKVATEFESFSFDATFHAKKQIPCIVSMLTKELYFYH
Nature of the data set: Enzymatic caspase activity assay, (Ac-DEVD)2-Rh110 substrate. The following applies: apparent IC50; 15 minute preincubation and 40 minute reaction; 300 pM caspase-3, 1 µM (Ac-DEVD)2-Rh110. It is filed as biochemical.

The target of another data set is T3, Caspase-7 (Homo sapiens, UniProt P55210).
T3 sequence (P55210 24-198 limits assumed): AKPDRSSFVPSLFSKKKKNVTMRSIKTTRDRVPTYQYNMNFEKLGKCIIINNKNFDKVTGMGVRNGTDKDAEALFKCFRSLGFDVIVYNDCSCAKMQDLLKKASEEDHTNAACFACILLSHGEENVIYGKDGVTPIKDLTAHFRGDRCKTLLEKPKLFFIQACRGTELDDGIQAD
T3 sequence (P55210 207-303 limits assumed): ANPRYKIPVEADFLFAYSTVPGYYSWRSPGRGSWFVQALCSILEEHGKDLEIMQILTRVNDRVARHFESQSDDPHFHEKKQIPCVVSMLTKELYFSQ
Described as above. The conditions noted are these: read-out: Mean IC50 Caspase-7; apparent IC50; 15 minute preincubation and 40 minute reaction; 5 pM caspase-7, 1 µM (Ac-DEVD)2-Rh110.

In data set [1] the target is T4, caspase-6 cleavage of lamin A/C in SKNAS cells (Homo sapiens, UniProt P55212).
T4 construct: monitors cellular caspase-6 cleavage of endogenous lamin A/C under apoptotic conditions; endogenous in cells; host or cells: SKNAS (ATCC #CRL-2137)
T4 sequence (P55212 24-179 limits assumed): T1 sequence (P55212 24-179 limits assumed)
T4 sequence (P55212 194-293 limits assumed): T1 sequence (P55212 194-293 limits assumed)
Nature of the data set: Cell-based ELISA for cleaved lamin A/C (cellular lamin cleavage assay). The conditions noted are these: for IC50: inhibitor 30 min before 3 µM staurosporine for 6 hours, small lamin A/C cleavage product; for fold lower potency in cellular lamin assay than in enzymatic assay: cellular lamin cleavage IC50 versus enzymatic caspase-6 IC50; for activity in the cellular lamin degradation assay: inhibitor concentrations up to 100 µM, 3 µM staurosporine for 6 hours. As to the method: The following day, cell culture medium was aspirated and replaced with 20 µl/well basal medium (DMEM with no supplements added). […] 5 µl of diluted inhibitor was delivered to each well and incubated for 30 minutes in a cell culture incubator prior to addition of 5 µl/well staurosporine in basal medium. The final DMSO concentration in the assay was 0.1% and the final staurosporine concentration was 3 µM (or indicated concentration). […] Cells were permeabilized by the addition of 50 µl 0.2% Triton X-100 in PBS for 15 minutes at room temperature. […] The following day, primary antibody was aspirated and the wells washed 3 times with 100 µl TBST. Secondary antibody (donkey anti-rabbit IgG, HRP-conjugated (GE Healthcare #NA934V)) was delivered at 1∶2500 dilution in blocking agent (20 µl/well) and incubated 1 hour at room temperature.
In order to develop an assay more amenable to inhibitor screening, this antibody detection was adapted to a plate-based non-denaturing assay. SKNAS cells cultured in 384-well plates were treated with 3 µM staurosporine for six hours prior to fixation with 4% paraformaldehyde and permeabilization with 0.2% Triton X-100. Binding of the two antibodies that recognize neo-epitopes on the large or small lamin degradation products was detected by horseradish-peroxidase-labeled secondary antibody and subsequent chemiluminescent substrate addition (see methods for details).

The test system of data set [2] is SKNAS cells. Nature of the data set: Mass spectrometry analysis of intracellular inhibitor accumulation. The conditions noted are these: 10 µM inhibitor, 1 hour at 37°C, LC/MS/MS.
Protocol: SKNAS cells were seeded in 12-well plates at a concentration of 5×10^6 cells/mL and allowed to adhere overnight prior to the experiment. Caspase inhibitors (10 µM) in Hank's balance Salt Solution (HBSS; Invitrogen) buffer containing 10 mM HEPES (Invitrogen) and a final DMSO concentration of 0.1% were added in triplicate to the cells. Non specific binding (NSB) samples were prepared by immediately aspirating the dose solution and washing the cells with 1 mL of ice cold HBSS. Cells for the accumulation experiment were incubated for 1 hour at 37°C with inhibitors prior to washing with 1 mL ice cold HBSS. Analytical internal standard (200 nM propranolol (Sigma) in 100% acetonitrile (ACN) with 0.1% formic acid) and blank HBSS buffer were sequentially added to the 12-well plates containing the NSB and accumulation samples. Reference samples for each inhibitor were made by adding internal standard to dose solution and cells incubated for 1 hour at 37°C. The cells from all experiments were scraped from the bottom of the 12 well plates, sonicated for approximately 30 minutes, and centrifuged for 10 minutes at 3000 x g prior to LC/MS/MS analysis.
The LC/MS/MS system consisted of an AB Sciex API4000 mass spectrometer (AB Sciex, Foster City, CA), an Aria LX2 multiplexing LC system (Thermo Fisher Scientific, Waltham, MA) and a CTC Analytics autosampler (Leap Technologies, Carrboro, NC). An ESI Spray source in the positive ion mode and multiple reaction monitoring (MRM) were used to quantitate peak areas. The LC separations were performed on a 50×2.0 mm Gemini C18 analytical column (Phenomenex, Torrance, CA). The mobile phases consisted of water with 0.1% formic acid (mobile phase A) and ACN with 0.1% formic acid (mobile phase B). Mass spectrometer data were processed using Analyst software version 1.4.2.
The test system of data set [3] is VEIDase activity in SKNAS cells. Nature of the data set: Caspase-Glo 6 assay (lysate based). It is filed as cell-based, human. The following applies: 3 µM staurosporine for 6 hours, lysate based readout, read-out: IC50 for inhibition of VEIDase activity, Caspase-Glo 6 assay. As to the method:
SKNAS cells were plated at a density of 20,000 cells per well into 384-well black clear-bottom cell culture plates in 20 µl/well growth medium and allowed to adhere overnight. The following day, 5 µl of peptide inhibitor diluted in growth medium was delivered to each well 30 minutes prior to addition of 5 µl/well staurosporine in growth medium. The final DMSO concentration in the assay was 0.1% and the final staurosporine concentration was 3 µM. Following 6 hours incubation at 37°C, Caspase-Glo® 6 reagents (Promega; Madison, WI) were prepared according to manufacturer's recommendation, and 30 µl was added directly to each well, followed by 1 hour incubation at 37°C and luminescence recording using a Perkin Elmer Envision.

Data set [4] relates to SKNAS cells. Nature of the data set: LDH release assay. It is filed as cell-based, human. As to the method: SKNAS cells were plated at a density of 20,000 cells per well into 384-well black clear-bottom cell culture plates in 20 µl/well growth medium and allowed to adhere overnight. The following day, 5 µl staurosporine diluted in growth medium was delivered to each well and incubated for the indicated time in a cell culture incubator. The final DMSO concentration in the assay was 0.1%. At each timepoint, lactate dehydrogenase (LDH) activity was measured in cell supernatants using a colorimetric LDH activity measurement kit (BioVision; Mountain View, CA) according to manufacturer's recommendation by measuring absorbance at 450 nm using a Spectramax platereader (Molecular Devices; Sunnyvale, CA).

The mark [5] stands for this setting: read-out: Enzymatic Caspase-6 IC50.
Where [6] appears, read: read-out: Mean IC50 Caspase-6, apparent IC50, 1 nM caspase-6, 5 µM (Ac-VEID)2-Rh110.

What is called IC50 is the point on the concentration scale where inhibition reaches its midpoint.

Where two headings read alike, the source gives them in different places. Peptide text beside a SMILES is read from it. * marks the point of attachment. Cbz = O=C(OCc1ccccc1)*; CH2F = FC*

Protocol for Caspase-3: (§1) All peptide inhibitors were serially diluted in DMSO prior to cross dilution in assay buffer (50 mM HEPES pH 7.2, 25 mM MgSO4, 0.5 mM EGTA, 5 mM Glutathione, 0.01% Triton X-100 containing 0.1% Bovine Gamma Globulin (BGG)). […] Rhodamine-labeled bivalent tetrapeptide substrates were obtained from Anaspec (Fremont, CA) and used as follows: 300 pM caspase-3 reacted with 1 µM (Ac-DEVD)2 -Rh110, 1 nM caspase-6 reacted with 5 µM (Ac-VEID)2 -Rh110, 5 pM caspase-7 reacted with 1 µM (Ac-DEVD)2 -Rh110. Enzyme and inhibitor were preincubated for 15 minutes prior to the addition of substrate to initiate the enzymatic reaction.
Protocol for Caspase-7: as §1

Turning to `CC[C@H](C)[C@H](NC(=O)[C@H](CCC(=O)OC)NC(=O)[C@@H](NC(=O)OCc1ccccc1)C(C)C)C(=O)N[C@@H](CC(=O)OC)C(=O)CF` [z-VEID-FMK] (Cbz-VE(OMe)ID(OMe)-CH2F), the IC50 on Caspase-6 (setting [5]) is 129 nM; on Caspase-6 (setting [6]), 129 nM; at Caspase-3, 45.1 nM; on Caspase-7, 648 nM.

For the compound `CC[C@H](C)[C@H](NC(C)=O)C(=O)N[C@@H](CCC(=O)O)C(=O)N[C@H](C(=O)N[C@H](C=O)CC(=O)O)[C@@H](C)O` [Ac-IETD-CHO] (Ac-IETD-aldehyde), the results for the IC50 at Caspase-6 (setting [6]), on Caspase-3 and on Caspase-7 were 53.2 nM, 75.8 nM and 553 nM, respectively.

Regarding z-EID-TFPM, the IC50 came out at 8.4 nM at Caspase-6 (setting [5]) and 21000 nM in data set [1] (SKNAS cells).

As to “z-VEID-tetrafluorophenoxymethyl [z-VEID-TFPM]”, the IC50 at Caspase-6 (setting [5]) is below 1.7 nM; in data set [1] (SKNAS cells), 12000 nM. For the same compound, the “% cell accumulation” value in the data set on SKNAS cells [2] worked out at 0.17%.

As to `CC(C)[C@H](NC(=O)c1ccc2ccccc2n1)C(=O)N[C@@H](CC(=O)O)C(=O)COc1c(F)cccc1F` [Q-VD-OPh], the IC50 was found to be 156 nM at Caspase-6 (setting [5]) and 940 nM in data set [1] (SKNAS cells). Moreover, the “% cell accumulation” value in the data set on SKNAS cells [2] is 1.72%. For the same compound, the “fold lower potency in cellular lamin assay than in enzymatic assay” value in data set [1] is 6 fold.

For the compound z-ID-TFPM, the IC50 at Caspase-6 (setting [5]) amounted to 19 nM; in data set [1] (SKNAS cells), 180 nM. Further, the “% cell accumulation” value with SKNAS cells [2] is given as 1.97%. In data set [1], the “fold lower potency in cellular lamin assay than in enzymatic assay” value is recorded as around 10 fold.

With `CC(=O)N[C@@H](CC(=O)O)C(=O)N[C@@H](CCC(=O)O)C(=O)N[C@H](C(=O)N[C@H](C=O)CC(=O)O)C(C)C` [Ac-DEVD-CHO], the IC50 on Caspase-6 (setting [5]) was 31 nM; on Caspase-6 (setting [6]), 30.5 nM; in data set [1] (SKNAS cells), above 100000 nM; in data set [3], 1490 nM; on Caspase-7, 3.7 nM. In data set [1] (SKNAS cells), the “activity in the cellular lamin degradation assay” value is “inactive in lamin degradation assay”.

With `COC(=O)C[C@H](NC(=O)[C@H](C)NC(=O)[C@@H](NC(=O)OCc1ccccc1)C(C)C)C(=O)CF` [z-VAD-FMK] (Cbz-Val-Ala-Asp(OMe)-CH2F), the IC50 on Caspase-6 (setting [5]) is 2110 nM; on Caspase-6 (setting [6]) it was 2110 nM; at Caspase-3, 168 nM; in data set [1] (SKNAS cells), 44000 nM; on Caspase-7, 74.7 nM.

For the compound `COC(=O)CC[C@H](NC(=O)[C@H](CC(=O)OC)NC(=O)OCc1ccccc1)C(=O)N[C@H](C(=O)N[C@@H](CC(=O)OC)C(=O)CF)C(C)C` [z-DEVD-FMK], the IC50 on Caspase-6 (setting [5]) was 402 nM; at Caspase-6 (setting [6]), 402 nM; in data set [1] (SKNAS cells) it was above 100000 nM; at Caspase-7, 98.5 nM.

For `CC[C@H](C)[C@H](NC(=O)[C@H](CCC(=O)O)NC(=O)[C@@H](NC(C)=O)C(C)C)C(=O)N[C@H](C=O)CC(=O)O` [Ac-VEID-CHO] (Ac-VEID-aldehyde), the IC50 at Caspase-3 was found to be 13.6 nM; in data set [3], 490 nM; at Caspase-7 it was 162 nM. In addition, the “activity in the cellular lamin degradation assay” value in data set [1] (SKNAS cells) is given as “lacks any activity in the cellular assay”.

As for `CN[C@@H]1C[C@H]2O[C@@](C)([C@@H]1OC)n1c3ccccc3c3c4c(c5c6ccccc6n2c5c31)C(=O)NC4` [staurosporine], in the data set on SKNAS cells [4] (30 µM staurosporine), the “treatment time required for the same degree of LDH release” value stood at 4 h. Moreover, in the data set on SKNAS cells [4] (after 6 hours of treatment), the “staurosporine concentration at which LDH release is detected above background levels” value is listed as around 4 µM. Moreover, the “signal:background ratio of lamin A/C degradation” value in data set [1] (SKNAS cells, 3 µM staurosporine, six-hour treatment, no inhibitor) is 8.8 fold.

Values taken from paper PMC3257251, “A Whole Cell Assay to Measure Caspase-6 Activity by Detecting Cleavage of Lamin A/C” (PLoS ONE, 2012).
